In patent US11786517B2, “Methods of treatment using a JAK inhibitor compound” (THERAVANCE BIOPHARMA R&D IP, LLC, priority 2017, dated 2023):

Tested on: BALF eosinophils
Assay: Murine model of Alternaria alternata-induced eosinophilic inflammation of the lung
Type: in vivo, C57 mice
Conditions: mouse, oropharyngeal aspiration 0.1-1.0 mg/mL, forty-eight hours after alternaria challenge
Protocol: Airway eosinophilia is a hallmark of human asthma. Alternaria alternata is a fungal aeroallergen that can exacerbate asthma in humans and induces eosinophilic inflammation in the lungs of mice (Havaux et al. Clin Exp Immunol. 2005, 139(2):179-88).
Seven- to nine-week old male C57 mice from Taconic were used in the study. On the day of study, animals were lightly anesthetized with isoflurane and administered either vehicle or test compound (0.1-1.0 mg/mL, 50 μL total volume over several breaths) via oropharyngeal aspiration. Animals were placed in lateral recumbency post dose and monitored for full recovery from anesthesia before being returned to their home cage. One hour later, animals were once again briefly anesthetized and challenged with either vehicle or alternaria extract (200 ug total extract delivered, 50 μL total volume) via oropharyngeal aspiration before being monitored for recovery from anesthesia and returned to their home cage. Forty-eight hours after alternaria administration, bronchoalveolar lavage fluid (BALF) was collected and eosinophils were counted in the BALF using the Advia 120 Hematology System (Siemens).
Activity in the model is evidenced by a decrease in the level of eosinophils present in the BALF of treated animals at forty-eight hours compared to the vehicle treated, alternaria challenged control animals. […]

CCc1cc(O)c(F)cc1-c1ccc2c(-c3nc4c([nH]3)CCN(C3CCN(C)CC3)C4)n[nH]c2c1 [compound 1, 5-ethyl-2-fluoro-4-(3-(5-(1-methylpiperidin-4-yl)-4,5,6,7-tetrahydro-1H-imidazo[4,5-c]pyridin-2-yl)-1H-indazol-6-yl)phenol]
inhibition of BALF eosinophil counts: about 88%
